Test results: ChEMBL document CHEMBL1201862, “PubChem BioAssay data set” (2004)
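96-well plates; 48 h exposure; 5 concentrations. Endpoints by linear interpolation between flanking doses. Not reached: highest tested concentration assigned. GI50 = concentration required for 50% inhibition of growth.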 The source made the active and inactive calls. Rule as the data show it: active = GI50 up to about 1.1 µM and inactive = higher.

Tests used:
Assay in all cases: NCI-60 cell line screen, 48 h
[1] = system: HOP-92
[2] = system: NCI-H522
[3] = system: HOP-62
[4] = system: SK-OV-3
[5] = system: SN12C
[6] = system: RPMI-8226
[7] = system: MOLT-4
[8] = system: UACC-62
[9] = system: SK-MEL-2
[10] = system: EKVX
[11] = system: A498
[12] = system: SF-539
[13] = system: SK-MEL-5
[14] = system: A549
[15] = system: T47D
[16] = system: MDA-MB-231
[17] = system: NCI/ADR-RES
[18] = system: PC-3
[19] = system: DU-145

Measured: GI50

O=[N+]([O-])c1ccc(/C=N/C23CC4CC(CC(C4)C2)C3)cc1
inactive: [1] > 100 µM | [2] > 100 µM | [3] > 100 µM | [4] > 100 µM | [5] > 100 µM | [6] > 100 µM | [7] > 100 µM | [8] > 100 µM | [9] > 100 µM | [10] > 100 µM | [11] > 100 µM | [12] > 100 µM

CN(C)/C=C/C(=O)c1cccc(C(=O)/C=C/N(C)C)n1
inactive: [13] > 100 µM | [1] > 100 µM | [2] > 100 µM | [14] > 100 µM | [3] > 100 µM | [4] > 100 µM | [5] > 100 µM | [6] > 100 µM | [7] > 100 µM | [8] > 100 µM | [9] > 100 µM | [10] > 100 µM | [11] > 100 µM | [12] > 100 µM

CC1=NN(C(=O)Cc2ccccc2)C(=O)/C1=C\c1ccc([N+](=O)[O-])cc1
inactive: [13] > 100 µM | [1] 1.15 µM | [2] > 100 µM | [14] > 100 µM | [3] > 100 µM | [4] > 100 µM | [5] > 100 µM | [6] > 100 µM | [7] > 100 µM | [8] > 100 µM | [9] > 100 µM | [10] > 100 µM | [11] > 100 µM | [12] > 100 µM

N#CCN1C(=O)c2cc([N+](=O)[O-])cc3cc([N+](=O)[O-])cc(c23)C1=O
inactive: [13] 15.6 µM | [1] 17.1 µM | [14] 18.6 µM | [3] 18.8 µM | [4] 39.6 µM | [5] 13.1 µM | [6] 5.51 µM | [7] 2.38 µM | [8] 12.4 µM | [9] 3.94 µM | [10] 23.6 µM | [11] 35.6 µM | [12] 14.6 µM

O=c1c2ccccc2nc(-c2cccc(Cl)c2)n1NCC1(O)OCC(O)C(O)C1O (stereo unspecified)
inactive: [13] > 10 µM | [2] 37.8 µM | [14] > 100 µM | [4] > 100 µM | [5] > 100 µM | [6] 41.1 µM | [7] 48.2 µM | [8] > 100 µM | [9] > 100 µM | [10] > 100 µM | [11] > 100 µM | [12] > 100 µM

CCOC(=O)CC(C)C1(C(=O)OCC)CCCCC1=O (stereo unspecified)
inactive: [13] > 100 µM | [2] > 100 µM | [14] > 100 µM | [3] > 100 µM | [4] > 100 µM | [5] > 100 µM | [6] 25.5 µM | [7] > 100 µM | [8] > 100 µM | [9] > 100 µM | [10] > 100 µM | [11] > 100 µM | [12] > 100 µM

CCOC(=O)C(=O)N/N=C1\C(=O)Nc2ccccc21
inactive: [13] > 100 µM | [15] > 100 µM | [2] > 100 µM | [14] > 100 µM | [3] > 100 µM | [4] > 100 µM | [5] > 100 µM | [6] > 100 µM | [7] > 100 µM | [16] > 100 µM | [8] > 100 µM | [17] > 100 µM | [9] > 100 µM | [10] > 100 µM | [11] > 100 µM | [18] > 100 µM | [19] > 100 µM

NC1=C(O)c2cccc3cccc(c23)C1=O
inactive: [13] > 100 µM | [1] > 100 µM | [2] > 100 µM | [14] > 100 µM | [4] > 100 µM | [5] > 100 µM | [6] > 100 µM | [7] > 100 µM | [8] > 100 µM | [9] > 100 µM | [10] > 100 µM | [11] > 100 µM | [12] > 100 µM

COC(=O)N/N=C(/CCC(=O)Nc1ccc(C)c(C)c1)CC(=O)C(C)(C)C
inactive: [13] > 100 µM | [2] > 100 µM | [14] > 100 µM | [3] > 100 µM | [4] > 100 µM | [5] > 100 µM | [6] > 100 µM | [7] > 100 µM | [8] > 100 µM | [9] > 100 µM | [10] > 100 µM | [12] > 100 µM

CCOP(=O)(OCC)[C@H](O)c1ccsc1
inactive: [13] > 100 µM | [15] > 100 µM | [2] > 100 µM | [14] > 100 µM | [3] > 100 µM | [4] > 100 µM | [5] > 100 µM | [6] > 100 µM | [7] > 100 µM | [16] > 100 µM | [8] > 100 µM | [17] > 100 µM | [9] > 100 µM | [10] > 100 µM | [11] > 100 µM | [18] > 100 µM | [12] > 100 µM | [19] > 100 µM

CCOC(=O)c1[nH]c(COC(C)=O)c(CCCOC(C)=O)c1CCCOC(C)=O
inactive: [1] > 100 µM | [2] 23 µM | [14] > 100 µM | [3] > 100 µM | [4] > 100 µM | [5] > 100 µM | [7] > 100 µM | [9] > 100 µM | [10] > 100 µM | [11] > 100 µM | [12] > 100 µM

Cc1cc2c(cc1C)[n+]([O-])c(C(=O)C/C(=N/NC(=S)NN)C(=O)Nc1cccc(C(F)(F)F)c1)c[n+]2[O-]
inactive: [13] > 100 µM | [1] > 100 µM | [2] > 100 µM | [14] > 100 µM | [3] > 100 µM | [4] > 100 µM | [5] > 100 µM | [6] > 100 µM | [7] > 100 µM | [8] > 100 µM | [9] > 100 µM | [10] > 100 µM | [11] > 100 µM | [12] > 100 µM

O=C1C2C=CC(n3[nH]c(=O)n(Cc4ccccc4)c3=O)CC2C(=O)N1c1cccc(Cl)c1 (stereo unspecified)
inactive: [13] > 100 µM | [1] > 100 µM | [2] > 100 µM | [14] > 100 µM | [3] > 100 µM | [4] > 100 µM | [5] > 100 µM | [8] > 100 µM | [9] > 100 µM | [10] > 100 µM | [11] > 100 µM | [12] > 100 µM

OCc1cc2c(cn1)[nH]c1ccc(NCc3ccccc3)cc12
inactive: [13] 12.2 µM | [1] 15.9 µM | [2] 15.7 µM | [14] 28.1 µM | [3] 51.9 µM | [4] 25.5 µM | [5] 34.9 µM | [6] 11 µM | [7] 17.5 µM | [8] 17.2 µM | [9] 40.2 µM | [10] 37.1 µM | [11] 17.8 µM | [12] 30.3 µM

COc1ccc(Cc2c3cc(O)c([O-])cc3cc[n+]2C)cc1
inactive: [13] 20.6 µM | [1] 47.9 µM | [2] 23.3 µM | [14] 30.8 µM | [3] 10.3 µM | [4] 41.5 µM | [5] 21 µM | [6] 28.4 µM | [7] 10.2 µM | [8] 23.9 µM | [9] 65.9 µM | [10] > 73.6 µM | [11] 42 µM | [12] 19.1 µM

O=C1OC(c2ccccc2)=N/C1=C/NC(Cc1ccccc1)C(=O)O (stereo unspecified)
inactive: [13] > 100 µM | [2] > 100 µM | [14] > 100 µM | [3] > 100 µM | [4] > 100 µM | [5] > 100 µM | [6] > 100 µM | [7] > 100 µM | [8] > 100 µM | [9] > 100 µM | [10] > 100 µM | [11] > 100 µM | [12] > 100 µM

Clc1ccccc1C1N2CCCCC2[C@@H]2c3[nH]c4ccccc4c3CCN12 (stereo partly specified)
inactive: [13] > 10 µM | [1] 41.7 µM | [14] > 10 µM | [3] 29.9 µM | [4] 21.6 µM | [5] 16.7 µM | [6] 23.8 µM | [7] 31 µM | [8] 15 µM | [9] 16.7 µM | [10] 40.1 µM | [11] 13.9 µM | [12] 15.2 µM

Nc1nc2c(ncn2CC(CO)CC(c2ccccc2)P(=O)(O)O)c(=O)[nH]1 (stereo unspecified)
inactive: [13] > 100 µM | [1] > 100 µM | [2] > 100 µM | [14] > 100 µM | [3] > 100 µM | [4] > 100 µM | [5] > 100 µM | [6] > 100 µM | [7] > 100 µM | [8] > 100 µM | [9] > 100 µM | [10] > 100 µM | [11] > 100 µM | [12] > 100 µM

CC1=CC(=O)CC2(C)CC[C@@H]3C[C@]12OC3(C)C (stereo partly specified)
inactive: [13] > 100 µM | [1] > 100 µM | [2] > 100 µM | [14] > 100 µM | [3] > 100 µM | [4] > 100 µM | [5] > 100 µM | [6] > 100 µM | [7] > 100 µM | [8] > 100 µM | [9] > 100 µM | [10] > 100 µM | [11] > 100 µM | [12] > 100 µM

N=C1NC(=O)N2CC12 (stereo unspecified) [IMEXON]
inactive: [13] > 100 µM | [1] > 100 µM | [2] > 100 µM | [14] > 100 µM | [3] > 100 µM | [4] > 100 µM | [5] > 100 µM | [6] > 100 µM | [7] > 100 µM | [8] > 100 µM | [9] > 100 µM | [10] > 100 µM | [11] > 100 µM | [12] > 100 µM
